Measurements from patent US20220281848A1, “PYRAZOLE-SUBSTITUTED PYRROLIDINONES AS HERBICIDES” (FMC Corporation, priority 2019, published 2022).

Tests used:
Assay type in all cases: in vivo
[1] = system: redroot pigweed (Amaranthus retroflexus, AMARE); experiment: Test A post-emergence, redroot pigweed; conditions: after 13 d
Outline: (§1)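 Post-emergence spray at 8 d after sowing; doses 15.625, 62.5 or 250 g/ha in acetone/water 50:50 + 0.5% Tween 20. Glasshouse 24/16 °C, 14 h light, 65% RH, watered twice daily. Visual damage rating 0–100 at 13 d.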

corn (Zea mays, ZEAMX) = experiment: Test A pre-emergence, corn; conditions: after 13 d
Outline: (§2)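 After sowing in pots and a single day of glasshouse cultivation, the soil was treated with an aqueous spray of the compound (acetone/water 50:50, 0.5% Tween 20) giving 15.625, 62.5 or 250 g/ha. Evaluation after 13 d used a scale where 0 meant no damage and 100 total damage.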

wheat [2] = experiment: Test D pre-emergence, wheat seed treated with a herbicide safener; conditions: 100=total damage, 0=no damage
Outline: (§3)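 Safener-seed-treated maize and wheat were sprayed with an emulsifiable formulation diluted in 0.2% v/v adjuvant solution, one day after sowing (pre-emergence) or after about 12 days (post-emergence). Plants were grown in a glasshouse at 24/18 or 20/16 °C with 16 h light; damage was scored 0–100 at 20 DAA (pre) or 15 d (post).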

[3] = system: redroot pigweed (Amaranthus retroflexus, AMARE); experiment: Test A pre-emergence, redroot pigweed; conditions: after 13 d
Outline: as §2

[4] = system: giant foxtail (Setaria faberi, SETFA); experiment: Test A post-emergence, giant foxtail; conditions: after 13 d
Outline: as §1

wheat [5] = experiment: Test D post-emergence, wheat seed treated with a herbicide safener; conditions: "Cereals" Postemergent
Description: A formulation containing 50 g/L of the test chemical was prepared by dissolving the active ingredient in a mixture of organic solvents and emulsifier, details of which are provided in the table. This formulation was then mixed with a small, variable amount of acetone to aid dissolution, before addition of a 0.2% v/v aqueous solution of an adjuvant, as the aqueous diluent, to form an aqueous spray solution which contains a predetermined concentration of the active ingredient.
This aqueous spray solution was then sprayed onto plants including maize and wheat that had been seed treated with a herbicide safener, after one day's cultivation (for pre-emergence) or after about 12 days' cultivation (for post-emergence). The plants were grown from seeds sown in standard soil, placed in a glasshouse under controlled conditions (at 24/18° C. or 20/16° C., day/night; 16 h light; 65% humidity). After spray application the plants were then grown in a glasshouse under the same conditions and watered twice daily. After 15 d for post-emergence and 20 DAA for pre-emergence the test was evaluated (100=total damage to plant; 0=no damage to plant).

[6] = system: ivy-leaved morning glory (Ipomoea hederacea, IPOHE); experiment: Test A post-emergence, ivy-leaved morning glory; conditions: after 13 d
Outline: as §1

[7] = system: velvetleaf (Abutilon theophrasti, ABUTH); experiment: Test A post-emergence, velvetleaf; conditions: after 13 d
Outline: as §1

[8] = system: barnyardgrass (Echinochloa crus-galli, ECHCG); experiment: Test A post-emergence, barnyardgrass; conditions: after 13 d
Outline: as §1

maize = experiment: Test D pre-emergence, maize seed treated with a herbicide safener; conditions: ZEAMX, preemergent, 20 DAA
Outline: as §3

[9] = system: giant foxtail (Setaria faberi, SETFA); experiment: Test A pre-emergence, giant foxtail; conditions: after 13 d
Outline: as §2

CN1CC(c2cc(C(F)(F)F)n(C)n2)C(C(=O)Nc2cccc(F)c2C(F)(F)F)C1=O (racemic) [Compound 19]
70: damage to plant (100=total damage; 0=no damage) SETFA ([4]; Post-Emergence at 15.625 g/ha) | damage to plant (100=total damage; 0=no damage) SETFA ([4]; Post-Emergence at 62.5 g/ha) | damage to plant (100=total damage; 0=no damage) ECHCG ([8]; Post-Emergence at 62.5 g/ha)
90: damage to plant (100=total damage; 0=no damage) SETFA ([9]; Pre-Emergence at 62.5 g/ha) | damage to plant (100=total damage; 0=no damage) SETFA ([9]; Pre-Emergence at 250 g/ha)
20: damage to plant (100=total damage; 0=no damage) ZEAMX (corn (Zea mays, ZEAMX); Pre-Emergence at 250 g/ha) | TRZAW damage rating (100=total damage to plant; 0=no damage to plant) (wheat [5]; Rates 500, evaluated after 15 d)
80: damage to plant (100=total damage; 0=no damage) SETFA ([4]; Post-Emergence at 250 g/ha) | damage to plant (100=total damage; 0=no damage) ECHCG ([8]; Post-Emergence at 250 g/ha) | damage to plant (100=total damage; 0=no damage) SETFA ([9]; Pre-Emergence at 15.625 g/ha)
10: damage to plant, TRZAW (wheat [2]; rate 250, 20 DAA)
30: damage to plant (100=total damage; 0=no damage) AMARE ([1]; Post-Emergence at 250 g/ha)
60: damage to plant, TRZAW (wheat [2]; rate 500, 20 DAA) | damage to plant (100=total damage; 0=no damage) ECHCG ([8]; Post-Emergence at 15.625 g/ha)
0: damage to plant (100=total damage; 0=no damage) AMARE ([1]; Post-Emergence at 15.625 g/ha) | damage to plant (100=total damage; 0=no damage) AMARE ([1]; Post-Emergence at 62.5 g/ha) | damage to plant (100=total damage; 0=no damage) ZEAMX (corn (Zea mays, ZEAMX); Pre-Emergence at 15.625 g/ha) | damage to plant (100=total damage; 0=no damage) ZEAMX (corn (Zea mays, ZEAMX); Pre-Emergence at 62.5 g/ha) | damage to plant, TRZAW (wheat [2]; rate 15, 20 DAA) | damage to plant, TRZAW (wheat [2]; rate 30, 20 DAA) | damage to plant, TRZAW (wheat [2]; rate 60, 20 DAA) | damage to plant, TRZAW (wheat [2]; rate 130, 20 DAA) | damage to plant (100=total damage; 0=no damage) AMARE ([3]; Pre-Emergence at 15.625 g/ha) | damage to plant (100=total damage; 0=no damage) AMARE ([3]; Pre-Emergence at 62.5 g/ha) | damage to plant (100=total damage; 0=no damage) AMARE ([3]; Pre-Emergence at 250 g/ha) | TRZAW damage rating (100=total damage to plant; 0=no damage to plant) (wheat [5]; Rates 130, evaluated after 15 d) | TRZAW damage rating (100=total damage to plant; 0=no damage to plant) (wheat [5]; Rates 250, evaluated after 15 d) | damage to plant (100=total damage; 0=no damage) IPOHE ([6]; Post-Emergence at 15.625 g/ha) | damage to plant (100=total damage; 0=no damage) IPOHE ([6]; Post-Emergence at 62.5 g/ha) | damage to plant (100=total damage; 0=no damage) IPOHE ([6]; Post-Emergence at 250 g/ha) | damage to plant (100=total damage; 0=no damage) ABUTH ([7]; Post-Emergence at 15.625 g/ha) | damage to plant (100=total damage; 0=no damage) ABUTH ([7]; Post-Emergence at 62.5 g/ha) | damage to plant (100=total damage; 0=no damage) ABUTH ([7]; Post-Emergence at 250 g/ha) | damage to plant (100=total damage to plant; 0=no damage to plant), ZEAMX (maize; rate 15) | damage to plant (100=total damage to plant; 0=no damage to plant), ZEAMX (maize; rate 30) | damage to plant (100=total damage to plant; 0=no damage to plant), ZEAMX (maize; rate 60) | damage to plant (100=total damage to plant; 0=no damage to plant), ZEAMX (maize; rate 130) | damage to plant (100=total damage to plant; 0=no damage to plant), ZEAMX (maize; rate 250) | damage to plant (100=total damage to plant; 0=no damage to plant), ZEAMX (maize; rate 500)
